One assay has as its system hounds tongue. Briefly: Killing of hounds tongue by amino acid. It counts as in vivo.
A further assay deals with Spotted Knapweed. In words: Killing of spotted knapweed by amino acids. It counts as in vivo.
Another assay has as its system Canada thistle. In words: Killing of Canada thistle by amino acid herbicide (FIG. 1).
In a further assay the test system is morning glories. In words: Killing of morning glories by amino acid. It counts as in vivo.
Another assay relates to hoary alssum. In words: Killing of hoary alyssum by amino acid. It counts as in vivo.
Another assay deals with Rush Skeleton weed. Briefly: Killing of rush skeleton weed by amino acid (FIG. 3). Format: in vivo.
The test system of a further assay is Field Bindweed. In words: Killing of field bindweed by amino acid (FIG. 4). Format: in vivo.
For another assay, the system named is dandilions. Briefly: Killing of dandelions by amino acid herbicide. It counts as in vivo, dandelion.
The subject of a further assay is leafy spurge. Briefly: Killing of leafy spurge by amino acids. It counts as in vivo.
A further assay has as its system wild rubarb. Briefly: Killing of wild rhubarb by amino acid. Format: in vivo.
A further assay concerns common yarroen. In words: Killing of common yarrow by amino acid. Format: in vivo.

Like-named read-outs stand apart in the source and are kept apart here.

With `CC(C)[C@H](N)C(=O)O` [Valine], in the assay on hounds tongue, the “kill of the weed” value is given as “killed”.
Take `CSCC[C@H](N)C(=O)O` [L-methionine]: the “kill of the weed” value in the assay on eurasian milfoil is “kill”; in the assay with Spotted Knapweed, “kill”; in the assay on poa anna, “kill”; with Kudzu, “kill”; with Kudzu (listed as Methionine), “killed”; in the assay with Canada thistle it was “kills the plant”.
For the compound `NCCCC[C@H](N)C(=O)O` [L-Lysine], the “kill of the weed” value is “kill” in the assay with hounds tongue; “kill” with morning glories; “kill” in the assay on hoary alssum; “kill” in the assay with Rush Skeleton weed; “killed” with Rush Skeleton weed (listed as Lysine); “killed” with Field Bindweed. The “kill of the weed” value with dandilions was “kill”; with leafy spurge, “kill”; in the assay with wild rubarb, “kill”; in the assay with common yarroen, “kill”; in the assay on Canada thistle, “kill”; in the assay on Canada thistle (listed as lysine), “kills the plant”.

Source of the values: patent US20210161134A1, “HERBICIDE AND METHOD OF APPLYING A HERBICIDE” (priority 2015, published 2021).
